# Measurements as given in patent US6407080B2, “N-(pyrimidinyl)-aspartic acid analogs as interleukin-1β converting enzyme inhibitors” (Vertex Pharmaceuticals Incorporated, priority 1994, dated 2002).
# Legend:
# [1] = biological target: T1, elastase (Homo sapiens, UniProt P08246); assay: Elastase inhibition (in vitro); type: biochemical; details: in vitro assay per Cha; did not inhibit elastase
# T1 sequence (P08246 30-267): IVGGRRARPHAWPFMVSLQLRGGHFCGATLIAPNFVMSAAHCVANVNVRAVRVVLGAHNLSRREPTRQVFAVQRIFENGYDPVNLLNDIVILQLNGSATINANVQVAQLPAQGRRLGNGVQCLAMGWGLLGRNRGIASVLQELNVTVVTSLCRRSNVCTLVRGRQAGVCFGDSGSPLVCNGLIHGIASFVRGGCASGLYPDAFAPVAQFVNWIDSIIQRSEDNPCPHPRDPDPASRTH
# Excerpt: It should be noted that the pyrimidine-based trifluoromethyl ketones (FIG. 2) were recently described as inhibitors of the serene protease, elastase. Since ICE is a cysteine protease and it is known in the prior art that trifluoromethyl ketones are rather poor inhibitors of cysteine proteases (See, Imperialia, B. and Ables, R. H., Biochemistly (1986), 2, 3760-7), it is expected that the pyrimidines of FIG. 2 would not be inhibitors of ICE. Also, it is known that ICE requires the aspartic acid side chain (—CH2COOH) at PI. Pyrimidines which inhibit elastase (FIG. 2) contain the valine side chain (—CHMe2).
# Compounds of examples 1, 6 and 7 were examined for their ability to inhibit elastase. The in vitro assay was carried out as described by Cha, Biochem. Pharmacol., (1975), 24, 2177-2185.
# [2] = test system: release of mature IL-1β from human monocytes; assay: Human monocyte pulse chase assay, inhibition of release of mature IL-1β (called "in vivo"); type: cell-based; details: freshly isolated human monocytes activated with fixed S. aureus, 2-3 donors, values approximate
# Description: In vivo inhibition (IC50) was determined based on Miller et al., “Inhibition of Mature IL-1β Production in Murine Macrophages and a Murine Model of Inflammation By WIN 67694, An Inhibitor of IL-1β Converting Enzyme, J. Immunol., 1994, 154, 1331, as follows:
# Human monocytes were isolated from heparinized leukopheresis units obtained through Biological Specialty Corporation (Lansdale, Pa.). Monocytes were purified by Ficoll-Hupaque (Pharmacia Fine Chemicals, Piscataway, N.J.) gradient centrifugation and more than 95% pure monocyte populations obtained by centrifugal elutriation. The assay was performed on duplicate samples of freshly isolated human monocytes, cultured in suspension at 37° C. and rotated gently in conical bottom polypropylene tubes (Sardstedt Inc., Princeton, N.J.). Human monocytes at a concentration of 5×10^6 cells/mL were resuspended in 1 mL of RPMI 1640 (a common tissue buffer from M.A. Bioproducts, Walkersville, Md.) containing 1% fetal calf serum (FCS) (HyClone, Logan, Utah) and 50 μg/mL gentamycin (Gibco, Grand Island, N.Y.). The cells were treated either with a compound of the invention (i.e. test compound) or with a non-inhibitor (control compound, typically 0.03% DMSO) for 15 minutes and then activated with 0.01% fixed Staphylococcus aureus (The Enzyme Center, Malden, Mass.) for 1 hour. The cells were then centrifuged and resuspended in 1 mL of cysteine, methionine-free RPMI media containing 1% dialyzed FCS (Hyclone). The cells were pretreated with a test compound or control compound for 15 minutes after which 0.01% fixed S. aureus plus 100 μCi Tran 35-S label (ICN, Irvine, Calif.) was added and the cells incubated at 37° C. for 1 hour. After incubation, […]. The cells were again pretreated with a test or control compound for 15 minutes and then 0.01% S. aureus for 2 hours. […]
# In the monocyte pulse chase assay, each test parameter was run in duplicate. […] When test compounds were evaluated, the percent inhibition of release of mature IL-β was calculated as follows: […]
SMILES,IC50 [1],IC50 [2]
O=C(O)C[C@H](NC(=O)Cn1c(-c2ccc(F)cc2)ncc(NC(=O)OCc2ccccc2)c1=O)C(=O)COC(=O)c1c(Cl)cccc1Cl [Example 1],≥ 10 µM,0.1 to 10 µM
"O=C(O)C[C@H](NC(=O)Cn1c(-c2ccc(F)cc2)ncc(NC(=O)OCc2ccccc2)c1=O)C(=O)COc1cc(C(F)(F)F)nn1-c1ccccc1 [Example 6, N-[2-(5-Benzyloxycarbonylamino-6-oxo-2-(4-fluorophenyl)-1,6-dihydro-1-pyrimidinyl)acetoyl]-L-aspartic Acid 5-(1-phenyl-3-trifluoromethyl)pyrazoloxymethyl Ketone]",≥ 10 µM,0.1 to 10 µM
"CC(C)OC(=O)Nc1cnc(-c2ccccc2)n(CC(=O)N[C@@H](CC(=O)O)C(=O)COc2cc(C(F)(F)F)nn2-c2ccccc2)c1=O [Example 7, N-[2-(5-Isopropyloxycarbonylamino-6-oxo-2-phenyl-1,6-dihydro-1-pyrimidinyl)acetoyl]-L-aspartic Acid 5-(1-phenyl-3-trifluoromethyl)pyrazoloxymethyl Ketone]",≥ 10 µM,0.1 to 10 µM
